Reference: publication PMC10299128, “The Parallel Structure–Activity Relationship Screening of Three Compounds Identifies the Common Agonist Pharmacophore of Pyrrolidine Bis-Cyclic Guanidine Melanocortin-3 Receptor (MC3R) Small-Molecule Ligands” (International Journal of Molecular Sciences, 2023)
Where two headings read alike, the source gives them in different places.

Legend:
mMC1R = mMC1R (Mus musculus, UniProt Q01727); experiment: AlphaScreen cAMP agonist assay, HEK293 cells stably expressing mMC1R; conditions: for mMC1R partial agonist efficacy bin: sigmoidal curve, efficacy <90% of NDP-MSH
mMC3R = mMC3R (Mus musculus, UniProt P33033); experiment: AlphaScreen cAMP agonist assay, HEK293 cells stably expressing mMC3R; conditions: for mMC3R partial agonist efficacy bin: sigmoidal curve, efficacy <90% of NDP-MSH
mMC4R = mMC4R (Mus musculus, UniProt P56450); experiment: AlphaScreen cAMP agonist assay, HEK293 cells stably expressing mMC4R; conditions: for mMC4R partial agonist efficacy bin: sigmoidal curve, efficacy <90% of NDP-MSH
mMC5R = mMC5R (Mus musculus, UniProt P41149); experiment: AlphaScreen cAMP agonist assay, HEK293 cells stably expressing mMC5R; conditions: for mMC5R partial agonist efficacy bin: sigmoidal curve, efficacy <90% of NDP-MSH; for mMC5R percent maximal stimulatory response (compared to NDP-MSH): at 1 mM, not enough stimulation to determine EC50
[1] = at 1 mM, not enough stimulation to determine EC50

Chain of mMC5R (P41149 whole entry): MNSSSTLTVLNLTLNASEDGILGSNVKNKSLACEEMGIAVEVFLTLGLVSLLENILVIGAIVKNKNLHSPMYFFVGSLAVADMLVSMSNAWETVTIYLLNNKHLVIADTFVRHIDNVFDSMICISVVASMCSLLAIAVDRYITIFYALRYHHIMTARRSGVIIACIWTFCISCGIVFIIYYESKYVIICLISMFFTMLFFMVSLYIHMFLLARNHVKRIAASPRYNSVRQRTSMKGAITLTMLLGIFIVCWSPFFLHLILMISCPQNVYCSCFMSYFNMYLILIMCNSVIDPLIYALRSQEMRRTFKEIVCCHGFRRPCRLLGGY
Chain of mMC3R (P33033 whole entry): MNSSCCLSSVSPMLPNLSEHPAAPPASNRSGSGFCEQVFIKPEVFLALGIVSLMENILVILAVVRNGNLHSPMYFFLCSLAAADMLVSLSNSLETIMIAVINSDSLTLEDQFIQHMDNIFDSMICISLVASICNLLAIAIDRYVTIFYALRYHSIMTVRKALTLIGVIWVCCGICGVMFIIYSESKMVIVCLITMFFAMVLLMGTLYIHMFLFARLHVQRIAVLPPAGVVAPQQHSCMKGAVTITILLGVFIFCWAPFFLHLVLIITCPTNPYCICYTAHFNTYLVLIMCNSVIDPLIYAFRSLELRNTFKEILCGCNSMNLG
Chain of mMC4R (P56450 whole entry): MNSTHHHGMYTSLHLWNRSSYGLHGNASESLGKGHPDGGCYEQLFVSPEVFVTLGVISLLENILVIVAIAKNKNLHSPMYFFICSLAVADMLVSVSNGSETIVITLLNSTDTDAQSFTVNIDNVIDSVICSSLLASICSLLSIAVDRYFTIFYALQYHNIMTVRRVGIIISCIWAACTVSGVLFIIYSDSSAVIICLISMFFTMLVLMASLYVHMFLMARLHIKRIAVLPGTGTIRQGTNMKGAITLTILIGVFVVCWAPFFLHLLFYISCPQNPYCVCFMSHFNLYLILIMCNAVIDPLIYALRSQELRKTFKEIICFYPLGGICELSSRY
Chain of mMC1R (Q01727 whole entry): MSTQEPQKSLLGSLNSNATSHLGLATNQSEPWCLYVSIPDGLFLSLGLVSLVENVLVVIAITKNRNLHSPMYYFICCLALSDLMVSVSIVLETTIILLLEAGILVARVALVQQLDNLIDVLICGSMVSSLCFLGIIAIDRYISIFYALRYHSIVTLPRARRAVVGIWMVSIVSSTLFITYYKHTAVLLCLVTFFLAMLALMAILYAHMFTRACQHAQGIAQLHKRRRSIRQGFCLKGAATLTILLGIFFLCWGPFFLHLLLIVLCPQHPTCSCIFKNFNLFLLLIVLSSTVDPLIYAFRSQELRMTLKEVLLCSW

Row | EC50 (mMC1R) [µM] | mMC1R partial agonist efficacy bin (mMC1R) | mMC4R percent maximal stimulatory response (compared to NDP-MSH) (mMC4R; [1]) [% @ 1 mM] | EC50 (mMC5R) [µM] | mMC5R partial agonist efficacy bin (mMC5R) | EC50 (mMC3R) [µM] | mMC3R partial agonist efficacy bin (mMC3R) | Structure (SMILES) | further results
1 | 0.4 ± 0.06 |  | 55 | 0.6 ± 0.2 |  | 1.5 ± 0.4 | B (B (51–90% receptor activation)) | CC(C)C[C@@H]1CNC(=N)N1C[C@H]1CCCN1C[C@@H](Cc1ccccc1)N1C[C@@H]([C@H](C)O)N(CC2CCC(C(C)(C)C)CC2)C1=N (some centres unmarked) [Compound 2718.032] | 
2 | 7 ± 2 | B (B (51–90% receptor activation)) | 50 | 2.9 ± 0.9 | B (B (51–90% receptor activation)) | 5.6 ± 0.8 | A (A (20–50% receptor activation)) | CC(C)C[C@H]1CNC(=N)N1C[C@H]1CCCN1C[C@H](Cc1ccccc1)N1C[C@@H]([C@H](C)O)N(CC2CCC(C(C)(C)C)CC2)C1=N (some centres unmarked) [Compound 2718.044] | 
3 | 4 ± 2 | B (B (51–90% receptor activation)) | 60 | 5 ± 2 | B (B (51–90% receptor activation)) |  |  | CC(C)C[C@@H]1CNC(=N)N1C[C@@H]1CCCN1C[C@@H](Cc1ccccc1)N1C[C@H]([C@@H](C)O)N(CC2CCC(C(C)(C)C)CC2)C1=N (some centres unmarked) [Compound 2718.030] | mMC3R percent maximal stimulatory response (compared to NDP-MSH) (mMC3R; [1]): 50% @ 1 mM
4 | 2.5 ± 0.3 |  |  | 2.92 ± 0.07 |  | 2.6 ± 0.1 | B (B (51–90% receptor activation)) | CCC[C@@H]1CN([C@H](CC2CCCCC2)CN2CCC[C@@H]2CN2C(=N)NC[C@H]2C(C)C)C(=N)N1CC1CCC(C(C)(C)C)CC1 (some centres unmarked) [Compound 2718.052] | fold decreased mMC1R agonist potency (mMC1R; relative to 2718.003): 4 fold; EC50 (mMC4R): 12 µM; mMC4R partial agonist efficacy bin (mMC4R): B (B (51–90% receptor activation))
5 |  |  | 55 | 3 ± 1 |  |  |  | CC(C)C[C@H]1CNC(=N)N1C[C@H]1CCCN1C[C@H](Cc1ccccc1)N1C[C@H]([C@@H](C)O)N(CC2CCC(C(C)(C)C)CC2)C1=N (some centres unmarked) [Compound 2718.034] | mMC1R percent maximal stimulatory response (compared to NDP-MSH) (mMC1R; [1]): 75% @ 1 mM; mMC3R percent maximal stimulatory response (compared to NDP-MSH) (mMC3R; [1]): 50% @ 1 mM; fold decreased mMC5R agonist potency (mMC5R; relative to 2718.001): 12 fold
6 | 11 | B (B (51–90% receptor activation)) |  |  |  | > 1000 |  | CCC[C@@H]1CN([C@H](CC2CCCCC2)CN2CCC[C@H]2CN2C(=N)NC[C@H]2C(C)C)C(=N)N1 [Compound 2718.015] | EC50 (mMC4R): > 1000 µM; mMC5R percent maximal stimulatory response (compared to NDP-MSH) (mMC5R): 35% @ 1 mM
7 | 15 | B (B (51–90% receptor activation)) |  |  |  | > 1000 |  | CC(C)C[C@@H]1CNC(=N)N1C[C@@H]1CCCN1C[C@@H](CC1CCCCC1)N1CCNC1=N [Compound 2718.012] | EC50 (mMC4R): > 1000 µM
8 | 0.39 ± 0.03 |  |  | 0.65 ± 0.08 |  | 2.9 ± 0.2 | B (B (51–90% receptor activation)) | CC(C)C[C@H]1CNC(=N)N1C[C@@H]1CCCN1C[C@@H](CC1CCCCC1)N1C[C@@H]([C@H](C)O)N(CC2CCC(C(C)(C)C)CC2)C1=N (some centres unmarked) [Compound 2718.048] | 

The next lines start with the compound.

Row | Structure (SMILES) | EC50 (mMC1R) [µM] | mMC1R partial agonist efficacy bin (mMC1R) | mMC4R percent maximal stimulatory response (compared to NDP-MSH) (mMC4R; [1]) [% @ 1 mM] | EC50 (mMC5R) [µM] | mMC5R partial agonist efficacy bin (mMC5R) | EC50 (mMC3R) [µM] | mMC3R partial agonist efficacy bin (mMC3R) | further results
9 | CC(C)C[C@H]1CNC(=N)N1C[C@@H]1CCCN1C[C@H](Cc1ccccc1)N1C[C@@H]([C@H](C)O)N(CC2CCC(C(C)(C)C)CC2)C1=N (some centres unmarked) [Compound 2718.039] | 4 ± 2 | B (B (51–90% receptor activation)) | 55 | 45 | B (B (51–90% receptor activation)) |  |  | mMC3R percent maximal stimulatory response (compared to NDP-MSH) (mMC3R; [1]): 50% @ 1 mM
10 | CC(C)C[C@@H]1CNC(=N)N1C[C@@H]1CCCN1C[C@@H](Cc1ccccc1)N1CCNC1=N [Compound 2718.006] |  |  | 20 |  |  | > 1000 |  | mMC1R percent maximal stimulatory response (compared to NDP-MSH) (mMC1R; [1]): 40% @ 1 mM; mMC5R percent maximal stimulatory response (compared to NDP-MSH) (mMC5R): 30% @ 1 mM
11 | CCN1C(=N)N([C@H](CC2CCCCC2)CN2CCC[C@H]2CN2C(=N)NC[C@H]2CC(C)C)C[C@H]1[C@H](C)O [Compound 2718.010] | 5 ± 1 | B (B (51–90% receptor activation)) | 20 | 45.5 | A (A (20–50% receptor activation)) | > 1000 |  | 
12 | CC(C)C[C@@H]1CNC(=N)N1C[C@@H]1CCCN1C[C@H](Cc1ccccc1)N1C[C@H]([C@@H](C)O)N(CC2CCC(C(C)(C)C)CC2)C1=N (some centres unmarked) [Compound 2718.035] | 3.7 ± 0.7 |  | 55 | 23 | B (B (51–90% receptor activation)) |  |  | fold decreased mMC1R agonist potency (mMC1R; relative to 2718.001): 12 fold; mMC3R percent maximal stimulatory response (compared to NDP-MSH) (mMC3R; [1]): 55% @ 1 mM
13 | CC(C)[C@@H]1CNC(=N)N1C[C@@H]1CCCN1C[C@@H](CC1CCCCC1)N1CCNC1=N [Compound 2718.016] | 30 | B (B (51–90% receptor activation)) |  |  |  | > 1000 |  | 
14 | CC(C)C[C@@H]1CNC(=N)N1C[C@H]1CCCN1C[C@@H](CC1CCCCC1)N1C[C@@H]([C@H](C)O)N(CC2CCC(C(C)(C)C)CC2)C1=N (some centres unmarked) [Compound 2718.047] | 0.87 ± 0.07 |  |  | 0.45 ± 0.03 |  |  |  | EC50 (mMC4R): 3.1 ± 0.2 µM; mMC4R partial agonist efficacy bin (mMC4R): B (B (51–90% receptor activation))
15 | CC(C)C[C@@H]1CNC(=N)N1C[C@@H]1CCCN1C[C@@H](CC1CCCCC1)N1C[C@@H]([C@H](C)O)NC1=N [Compound 2718.011] | 15 | B (B (51–90% receptor activation)) |  |  |  | > 1000 |  | EC50 (mMC4R): > 1000 µM
16 | CC(C)C[C@H]1CNC(=N)N1C[C@@H]1CCCN1C[C@H](Cc1ccccc1)N1C[C@H]([C@@H](C)O)N(CC2CCC(C(C)(C)C)CC2)C1=N (some centres unmarked) [Compound 2718.042] | 2.9 ± 0.2 |  | 65 | 21.3 | B (B (51–90% receptor activation)) |  |  | fold decreased mMC1R agonist potency (mMC1R; relative to 2718.001): 9 fold; mMC3R percent maximal stimulatory response (compared to NDP-MSH) (mMC3R; [1]): 65% @ 1 mM
17 | CC(C)C[C@@H]1CNC(=N)N1C[C@@H]1CCCN1C[C@@H](CC1CCCCC1)N1C[C@H]([C@@H](C)O)N(CC2CCC(C(C)(C)C)CC2)C1=N (some centres unmarked) [Compound 2718.045] | 1 ± 0.1 |  | 50 | 2.2 ± 0.7 |  | 3.5 ± 0.2 | B (B (51–90% receptor activation)) | fold decreased mMC1R agonist potency (mMC1R; relative to 2718.002): 4 fold; fold decreased mMC5R agonist potency (mMC5R; relative to 2718.002): 8 fold
18 | CC(C)C[C@@H]1CNC(=N)N1C[C@H]1CCCN1C[C@@H](Cc1ccccc1)N1C[C@H]([C@@H](C)O)N(CC2CCC(C(C)(C)C)CC2)C1=N (some centres unmarked) [Compound 2718.036] | 0.9 ± 0.3 |  | 55 | 5.8 ± 0.9 | B (B (51–90% receptor activation)) |  |  | mMC3R percent maximal stimulatory response (compared to NDP-MSH) (mMC3R; [1]): 50% @ 1 mM
19 | CCCCC1CNC(=N)N1CC1CCC(C(C)(C)C)CC1 (centres unmarked) [Compound 2718.021] |  |  |  |  |  |  |  | mMC1R percent maximal stimulatory response (compared to NDP-MSH) (mMC1R; at 100 µM): 80% @ 100 µM; mMC3R percent maximal stimulatory response (compared to NDP-MSH) (mMC3R; at 100 µM): 50% @ 100 µM; mMC4R percent maximal stimulatory response (compared to NDP-MSH) (mMC4R; at 100 µM): 50% @ 100 µM; EC50 (mMC5R; read-out: mMC5R EC50, agonist, mean ± SEM, at least three independent experiments, >1,000,000 = no agonist activity up to 1 mM): 17 µM; fold decreased mMC5R agonist potency (mMC5R; relative to 2718.003): 14 fold; mMC5R agonist efficacy (in words) (mMC5R; relative to NDP-MSH, full = >90% receptor activation): fully activate
20 | CCC[C@@H]1CN([C@@H](CC2CCCCC2)CN2CCC[C@H]2CN2C(=N)NC[C@H]2C(C)C)C(=N)N1CC1CCC(C(C)(C)C)CC1 (some centres unmarked) [Compound 2718.051] | 6 ± 2 |  |  | 11 |  |  |  | fold decreased mMC1R agonist potency (mMC1R; relative to 2718.003): 9 fold; mMC3R percent maximal stimulatory response (compared to NDP-MSH) (mMC3R; [1]): 65% @ 1 mM; EC50 (mMC4R): 50 µM; mMC4R partial agonist efficacy bin (mMC4R): B (B (51–90% receptor activation)); fold decreased mMC5R agonist potency (mMC5R; relative to 2718.003): 9 fold
21 | CC(C)CC1CNC(=N)N1CC1CCCN1CC(Cc1c[nH]c2ccccc12)N1CC(C(C)O)N(CC2CCC(C(C)(C)C)CC2)C1=N (centres unmarked) [Compound 2718.056] | 6 ± 3 | B (B (51–90% receptor activation)) |  | 14 |  |  |  | fold decreased mMC5R agonist potency (mMC5R; relative to 2718.002): 50 fold
22 | CC(C)CC1CNC(=N)N1CC1CCCN1CC(Cc1ccc2ccccc2c1)N1CC(C(C)O)N(CC2CCC(C(C)(C)C)CC2)C1=N (centres unmarked) [Compound 2718.055] | 1 ± 0.2 |  |  | 8 ± 2 |  | 7 ± 3 | B (B (51–90% receptor activation)) | 
23 | CC(C)C[C@H]1CNC(=N)N1C[C@H]1CCCN1C[C@H](CC1CCCCC1)N1C[C@H]([C@@H](C)O)N(CC2CCC(C(C)(C)C)CC2)C1=N (some centres unmarked) [Compound 2718.049] | 8 ± 2 | B (B (51–90% receptor activation)) |  | 2.8 ± 0.1 |  |  |  | fold decreased mMC5R agonist potency (mMC5R; relative to 2718.002): 10 fold
24 | CC(C)CC1CNC(=N)N1CC1CCCN1CC(Cc1ccc(O)cc1)N1CC(C(C)O)N(CC2CCC(C(C)(C)C)CC2)C1=N (centres unmarked) [Compound 2718.057] | 0.5 ± 0.1 |  |  | 6 ± 2 | B (B (51–90% receptor activation)) | 11 | B (B (51–90% receptor activation)) | 
25 | CC(C)CC1CNC(=N)N1CC1CCCN1CC(C1CCCCC1)N1CC(C(C)O)N(CC2CCC(C(C)(C)C)CC2)C1=N (centres unmarked) [Compound 2718.059] |  |  |  | 6 ± 1 |  | 11 | A (A (20–50% receptor activation)) | fold decreased mMC5R agonist potency (mMC5R; relative to 2718.002): 20 fold
